By IC50 is commonly meant the point on the concentration scale where inhibition reaches its midpoint. By Kd is commonly meant the equilibrium constant for the complex coming apart.

In PMC10333884, “Large‐scale phosphomimetic screening identifies phospho‐modulated motif‐based protein interactions” (Molecular Systems Biology, 2023) one finds IC50, Kd and PES data, which are given here for two compounds.

Molecules are shown by their SMILES. Non-standard residues stand in square brackets, D forms with d. Residues, ends and D or L forms follow the SMILES beside them. pS = N[C@@H](COP(=O)(O)O)C(=O)O

One assay has as its target T1, KPNA4 ARM minor (Homo sapiens, UniProt O00629).
T1 construct: 60-487; GST (cleaved yes); made in house; host or cells: Escherichia coli BL21-Gold(DE3)
Description: FP displacement assay, KPNA4 ARM minor pocket. The following applies: for IC50: Fig 3E, KPNA4 ARM minor, technical triplicates, read-out: IC50 values of displacement curves, with SEM; for Kd: minor pocket probe FITC-NCOR2 5 nM, 50 mM sodium phosphate pH 7.4, room temperature, at least three technical replicates, read-out: KD values ± SEM. Format: binding. As for the experimental part: (§1) FP experiments were performed as described previously (Kliche et al, [2021]). Shortly, in order to monitor the binding event, FITC‐labelled peptides were used (excitation 495 nm, emission: 535 nm) and the FP signal was recorded in mP on a SpectraMax iD5 Multi‐Mode Microplate Reader (Molecular Devices) by measuring the emitted light in two angels. The measurements were performed at room temperature and prepared in nonbinding black half area 96‐well microplates (Corning®; 50 μl/well). For measuring direct binding, that is saturation curves, a 1:1 dilution series of protein domain (25 μl/well) was generated in 50 mM sodium phosphate buffer pH 7.4 and the measurement performed with 5 nM FITC‐labelled peptide (25 μl/well). The buffer‐corrected values were subsequently plotted with PRISM and fitted to the quadratic equation (Gianni et al, [2005]).
(§2) The 1:1 dilution series in this experiment was performed with the unlabelled peptide in 50 mM sodium phosphate buffer pH 7.4, so that each well‐contained unlabelled peptide (25 μl) at a certain concentration and pre‐formed complex (25 μl). The KD values of this indirectly monitored binding event were calculated as described previously (Nikolovska‐Coleska et al, [2004]). All measurements were at least in technical triplicates as well as biological duplicates when indicated. An amplitude shift between repeat measurements in the displacement experiments was occasionally observed due to variations in the protein preparations. If that was the case, the “active” protein concentration was back‐calculated according to the quadratic equation from the saturation curves performed in parallel. By comparing the active protein concentrations in the complex between different protein preparations, the amplitude was normalised.

A further assay has as its target T2, KPNA4 ARM Major (Homo sapiens, UniProt O00629).
T2 construct: 60-487; GST (cleaved yes); made in house; host or cells: Escherichia coli BL21-Gold(DE3)
Briefly: FP displacement assay, KPNA4 ARM major pocket. Format: binding. The following applies: for IC50: Fig 3E, KPNA4 ARM major, technical triplicates, read-out: IC50 values of displacement curves, with SEM; for Kd: major pocket probe FITC-MYC 5 nM, 50 mM sodium phosphate pH 7.4, room temperature, at least three technical replicates, read-out: KD values ± SEM. The method, then: as §1, §2

A further assay concerns KPNA4 ARM. Briefly: Phosphomimetic ProP-PD selection, KPNA4 ARM. The following applies: phosphomimetic enrichment score of the wild-type/phosphomimetic (E) pair at the phosphosite, PM_HD2 phage selection; same score in the major and minor pocket; P-value in brackets not taken. Format: binding, human.

T2 sequence (O00629 60-487): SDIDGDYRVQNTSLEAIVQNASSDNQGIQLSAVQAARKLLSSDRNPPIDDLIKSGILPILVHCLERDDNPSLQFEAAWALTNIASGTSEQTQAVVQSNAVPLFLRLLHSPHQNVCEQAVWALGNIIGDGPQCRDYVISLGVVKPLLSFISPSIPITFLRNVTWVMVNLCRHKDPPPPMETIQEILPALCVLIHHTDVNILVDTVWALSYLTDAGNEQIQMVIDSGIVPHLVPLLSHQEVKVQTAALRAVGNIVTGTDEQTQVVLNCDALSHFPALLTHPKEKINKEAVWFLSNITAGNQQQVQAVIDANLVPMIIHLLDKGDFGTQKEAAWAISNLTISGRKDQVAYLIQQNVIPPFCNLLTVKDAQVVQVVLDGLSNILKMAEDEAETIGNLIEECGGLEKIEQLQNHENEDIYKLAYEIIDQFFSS
T1 sequence (O00629 60-487): as above

Consider `CC(=O)N[C@@H](CC(N)=O)C(=O)N[C@@H](Cc1ccc(O)cc1)C(=O)N[C@@H](C)C(=O)N1CCC[C@H]1C(=O)N1CCC[C@H]1C(=O)N[C@H](C(=O)N[C@@H](CCCCN)C(=O)N[C@@H](CCCNC(=N)N)C(=O)N[C@@H](CCC(=O)O)C(=O)N[C@@H](CCCNC(=N)N)C(=O)N[C@H](C(=O)N[C@@H](COP(=O)(O)O)C(=O)N[C@@H](CO)C(=O)N[C@@H](CC(C)C)C(=O)N[C@H](C(=O)N[C@@H](CCC(N)=O)C(N)=O)[C@@H](C)O)[C@@H](C)O)C(C)C` [RANBP3_114–129 pS (p + 6)] (Ac-NYAPPVKRERT[pS]SLTQ-NH2), for which the concentration for half-maximal inhibition (IC50) was determined as 98 ± 7 µM on KPNA4 ARM minor and 2000 ± 500 nM on KPNA4 ARM Major. Further, the Kd was 20 ± 1 µM on KPNA4 ARM minor and 220 ± 30 nM at KPNA4 ARM Major.

With `CC(=O)N[C@@H](CC(N)=O)C(=O)N[C@@H](Cc1ccc(O)cc1)C(=O)N[C@@H](C)C(=O)N1CCC[C@H]1C(=O)N1CCC[C@H]1C(=O)N[C@H](C(=O)N[C@@H](CCCCN)C(=O)N[C@@H](CCCNC(=N)N)C(=O)N[C@@H](CCC(=O)O)C(=O)N[C@@H](CCCNC(=N)N)C(=O)N[C@H](C(=O)N[C@@H](CCC(=O)O)C(=O)N[C@@H](CO)C(=O)N[C@@H](CC(C)C)C(=O)N[C@H](C(=O)N[C@@H](CCC(N)=O)C(N)=O)[C@@H](C)O)[C@@H](C)O)C(C)C` [RANBP3_114–129 E (p + 6)] (Ac-NYAPPVKRERTESLTQ-NH2), the PES with KPNA4 ARM is recorded as −3.1 (0.077). Besides, on KPNA4 ARM minor, the IC50 amounted to 385 ± 220 µM and the Kd is 80 ± 27 µM. Also, at KPNA4 ARM Major, the half-maximal inhibitory concentration (IC50) amounted to 1300 ± 100 nM and the Kd was determined as 140 ± 10 nM.
